# In PubChem BioAssay AID624448 (The Scripps Research Institute Molecular Screening Center, 2012):
# Calls of active or inactive are those of the source.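 The calls were made as follows: active = PP5 phosphatase activity cut by at least half at the top 100 µM dose; inactive = less than half inhibition at 100 µM.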
# Molecular target: Serine/threonine-protein phosphatase 5 (Homo sapiens) (UniProt P53041)
# Test: PP5 phosphatase inhibitor potency, late-stage follow-up, biochemical, OMFP substrate, fluorescence, round 5, 1 µM low dose (AID 624448)
# Details: purified PP5c, OMFP dephosphorylation
# Chain of Serine/threonine-protein phosphatase 5 (Homo sapiens) (P53041 whole entry, looked up): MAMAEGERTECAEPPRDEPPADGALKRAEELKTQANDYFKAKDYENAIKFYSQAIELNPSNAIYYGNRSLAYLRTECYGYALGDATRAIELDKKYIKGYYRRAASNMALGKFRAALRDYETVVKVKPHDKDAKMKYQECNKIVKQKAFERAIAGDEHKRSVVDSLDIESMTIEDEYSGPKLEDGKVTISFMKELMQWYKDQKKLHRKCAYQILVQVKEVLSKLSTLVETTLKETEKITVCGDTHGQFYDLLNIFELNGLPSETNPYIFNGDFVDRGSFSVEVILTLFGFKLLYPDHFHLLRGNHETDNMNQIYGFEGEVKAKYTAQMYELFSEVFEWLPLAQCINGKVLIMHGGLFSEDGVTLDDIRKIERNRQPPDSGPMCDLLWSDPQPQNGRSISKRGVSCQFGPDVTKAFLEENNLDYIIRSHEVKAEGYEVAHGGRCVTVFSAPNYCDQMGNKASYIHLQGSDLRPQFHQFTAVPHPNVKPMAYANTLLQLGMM
row,SMILES,IC50
1,O=C(O)c1cn(Cc2ccccc2)nn1,> 100 µM (inactive)
2,O=C(O)c1ncn[nH]1,> 100 µM (inactive)
3,O=C(O)c1nn(Cc2ccccc2)nc1Cl,> 100 µM (inactive)
4,O=C(O)c1cn[nH]n1,> 100 µM (inactive)

# Further lines, results first:
row,IC50,SMILES
1,> 100 µM (inactive),O=C(O)c1cn[nH]c1-c1ccccc1
2,> 100 µM (inactive),O=C(O)c1nnn(-c2ccccc2)c1-c1ccccc1
3,> 100 µM (inactive),Cc1n[nH]nc1C(=O)O
4,> 100 µM (inactive),COC(=O)c1n[nH]nc1-c1ccccc1
